This is an account of results in patent US7074925B1, “N-substituted derivatives of 5-oxyiminobarbituric acid” (priority 1998, dated 2006).

Structures are written as SMILES. ≈ marks a conversion by molar mass, not a printed value.

Data set [1] in a line: Determination of maximal tolerable dose. The following applies: oral administration, mice, observed 72 hours; 300 was the maximally utilized one. In kind it is in vivo. The method, then:
Tested substance was introduced perorally (in dose of 300 mg/kg) through a gastric tube or intraperitoneally (in dose of 100 mg/kg) to no-breed white mice with mass 18-20 g (each tested group consisted of 3 males and 3 females). Then the mouse state was observed during 72 hours. Absence of symptoms characteristic of toxic effects, or absence of animal death during the given time allows to make a conclusion that the toxicity of the test substance is low. If acute toxicity effects are observed, the dose is reduced to find maximal tolerable dose.

For data set [2], the system named is Herpes virus of the type I (HSV-I/Leningrad/248/88). Kind of data set: Effect on Herpes virus, cytopathogenic action on Vero cells. In kind it is cell-based, Herpes Simplex virus. Conditions: compound 100 μg/ml.
The test system of data set [3] is primary culture of human lymphocytes (IFN-α production). Kind of data set: Interferon-inducing activity in primary culture of human lymphocytes. It is filed as cell-based.
In a further data set the test system is C.trachomatis D323. Kind of data set: Action on Chlamydia trachomatis in cell culture. In kind it is cell-based. Conditions: 100 mg/l. How it is done: The antimicrobial activity of the claimed compounds was studied relative to C.trachomatis […], which is a standard strain from the collection of the chair of microbiology of St. Petersburg State Pavlov Medical University. […] Cell cultures McCoy and L929 obtained from the Institute of Cytology of RAS were used in this work. Cells were grown in flasks made of neutral glass in the medium RPMI-1640 with the addition of 10% of fetal calf serum. The test was performed in glass (non-toxic) flat-bottom flasks with cover glasses. The cells were introduced into the medium in the final concentration of […]. […] Simultaneously, tested compounds in a final concentration of 100 mg/l were added to the cells. The sample was centrifuged at 2400 G during 60 minutes at room temperature and incubated at 37° C. for 2 hours. […] The samples were doubled using the medium without cycloheximide so as to exclude its effect on the investigated compounds. The samples were incubated in a CO2-incubator for 48 hours. […] The effect of the action of substance was determined by analysis of the monolayer state and number of cells with CPI when compared with the control (cell culture infected with C.trachomatis […]); in doing so, the number of unchanged cells, that were counted in 100 visual fields obtained using the special net of the microscope eyepiece, was taken into consideration. […] Control of cell culture: morphology of cells and state of monolayer correspond to the given type of the cells; control of chlamydia growth in the cell culture: presence of CPI in the monolayer; control of action of standard antimicrobial agent: reduction of number of CPI in the monolayer as compared to the previous control; control of toxicity of the claimed compounds: toxicity is absent; control of action of solvents: toxic action on cells is absent.

Data set [4] relates to Human's platelet aggregation. In words: Antiaggregational properties, ADP-induced platelet aggregation. In kind it is cell-based. The following applies: 100 μg/ml, ADP […], platelet-enriched human plasma. The source says: Human's platelet aggregation was investigated in plasma of healthy 50±3 years donors that was enriched by thrombocytes, by means of aggregometer FRM-1. […] Magnitude of a maximum non-reversible platelet aggregation in the control samples (solvent) was adopted as 100%, and that in tested samples was counted as the percentage compared to the control.

Data set [5] can be described thus: Psychostimulating activity, symptom score. Conditions: tested substances perorally 300 mg/kg, one hour after; maximum 30 points, more than 12 significant. It is filed as in vivo, mice.
Data set [6] is described as follows: Analgesic activity, tail withdrawal from radiant heat. In kind it is in vivo, mice. How it is done: The time needed to draw back a tail placed under a directed source of radiant heat was estimated in a group of 3 mice. Prolongation of the response time by more than 50% after intraperitoneal dosing a substance (30 mg/kg) indicated analgesic activity. Morphine sulfate (2 mg/kg) was utilized as a reference agent.

The nature of data set [7]: Antioxidant action, riboflavine chemiluminescence. In kind it is biochemical. Conditions: solvent water, phosphate buffer pH 9.1. The text has this:
To assess a general antioxidant activity the method of riboflavine chemiluminescence was used. The test substance was introduced into a system consisted of phosphate buffer (pH 9.1), solution of riboflavine, and solution of bivalent iron sulfate. Chemiluminescence was initiated by 0.1% solution of hydrogen peroxide and registered by means of luminometer. […] Ascorbic acid was used as a reference agent.

On to `Cc1ccccc1N1C(=O)C(=NO)C(=O)NC1=S` [XLII], for which the “Maximal tolerable dose, concentration of test substances” value in data set [1] stood at 300 mg/kg. Further, in data set [2] (Vero cells, 36 hours, cell control 10000), the “Quantity of the unchanged cells (number of cells in 100 visual fields)” value was found to be 5000. Moreover, in data set [2] (compared to the control of cell culture), the “percentage of protection of cells from virus” value was “(50%)”. Besides, the “Content of IFN in induction mixture after 24-hour incubation” value in data set [3] (substance 1 mg/l) is listed as 28.0 ± 1.5 IU/3 × 10^4 lymph./ml; in data set [3] (substance 10 mg/l), 45 ± 1.2 IU/3 × 10^4 lymph./ml; in data set [3] (substance 100 mg/l) it was 97.5 ± 1.8 IU/3 × 10^4 lymph./ml. For the same compound, the “percentage of cell protection from infection” value with C.trachomatis D323 is on record as “(60%)”. For the same compound, the “Number of unchanged cells” value with C.trachomatis D323 (48 hours, counted in 100 visual fields, cell control 8.000, infected cells 6.000) came to 7.200. The “% of inhibition of platelet aggregation” value in data set [4] is on record as 35.8 ± 3.2%. Also, the “Number of points (psychostimulation)” value in data set [5] was 15. For the same compound, the “Latent period of response, before dosing” value in data set [6] (before intraperitoneal 30 mg/kg) came out at 7.8. Moreover, the “Latent period of response, 30 minutes after dosing” value in data set [6] (intraperitoneal 30 mg/kg) is recorded as 11.3. In addition, in data set [7], the “IC50, suppressing chemiluminescence by 50%” value came to 9.99 µg/mL (≈ 37.9 µM).
